This test has as its system A549 cells. Description: High Content Screening measurement of p53 induction. It is filed as cell-based. The conditions noted are these: 5 μM camptothecin, 18-20 hours. How it is done:
Any of the above described compounds are conjugated to antibodies and used for HCS measurement of p53 induction. A549 cells are seeded at 5,000 cells/well on 96 well microplates one day before treating them with different concentrations of camptothecin. In the presence of the drug, cells are incubated for 18-20 hours at 37° C., 5% CO2 in a humidified incubator. Cells are then fixed with 4% paraformaldehyde, permeabilized with 0.1% Triton X-100, and then labeled with rabbit p53 primary antibody and goat-anti-rabbit-conjugate of one of the above-described compounds. Cell nuclei are labeled with Hoechst 33342. The samples are imaged and quantitatively analyzed on an ArrayScan® HCS Reader (Cellomics, Inc. Pittsburgh Pa.). […] Camptothecin treated cells show bright p53 labeling in the nuclei.

The source of these data is US7745645B2, “Sulfonamide derivatives of xanthene compounds” (Pierce Biotechnology, Inc., priority 2007, dated 2010).

As to `CC[C@@]1(O)C(=O)OCc2c1cc1n(c2=O)Cc2cc3ccccc3nc2-1` [camptothecin], the “p53 induction (fluorescence images)” value is on record as “p53 induction in the nucleus”.
